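A five-concentration, 48-hour dose response in 96-well plates underlies each endpoint, interpolated linearly between surrounding concentrations. GI50 is the concentration that inhibits growth by half.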 Active and inactive are the calls of the source. Rule as the data show it: active = GI50 up to about 1.1 µM and inactive = higher.
How the values were obtained:
Experiment in all cases: growth of human tumour cells (NCI), 48 h
KM12 = system: KM12
SW-620 = system: SW-620
CAKI-1 = system: CAKI-1
A549 = system: A549
NCI-H460 = system: NCI-H460
MOLT-4 = system: MOLT-4
HCT-116 = system: HCT-116
RPMI-8226 = system: RPMI-8226
NCI/ADR-RES = system: NCI/ADR-RES
DU-145 = system: DU-145
UACC-257 = system: UACC-257
HL-60 = system: HL-60
SF-539 = system: SF-539
SNB-19 = system: SNB-19
IGROV-1 = system: IGROV-1
HT-29 = system: HT-29
MCF7 = system: MCF7
SK-OV-3 = system: SK-OV-3
OVCAR-3 = system: OVCAR-3
MDA-MB-231 = system: MDA-MB-231

Structure (SMILES)	GI50 (KM12)	GI50 (SW-620)	GI50 (CAKI-1)	GI50 (A549)	GI50 (NCI-H460)	GI50 (MOLT-4)	GI50 (HCT-116)	GI50 (RPMI-8226)	GI50 (NCI/ADR-RES)	GI50 (DU-145)	GI50 (UACC-257)	GI50 (HL-60)	GI50 (SF-539)	GI50 (SNB-19)	GI50 (IGROV-1)	GI50 (HT-29)	GI50 (MCF7)	GI50 (SK-OV-3)	GI50 (OVCAR-3)	GI50 (MDA-MB-231)
CC(=O)CCNc1ccc(-c2cc(-c3ccc(N(C)C)cc3)nc3ccc4ccccc4c23)cc1	27.5 µM (inactive)	> 100 µM (inactive)	> 65.8 µM (inactive)	34.1 µM (inactive)	35.2 µM (inactive)	6.76 µM (inactive)	18.5 µM (inactive)	11.7 µM (inactive)	97.9 µM (inactive)	> 57.5 µM (inactive)	> 100 µM (inactive)	3.7 µM (inactive)	> 53.7 µM (inactive)	> 100 µM (inactive)	14.5 µM (inactive)	66.2 µM (inactive)	27.1 µM (inactive)	> 100 µM (inactive)	44.8 µM (inactive)	> 75 µM (inactive)
Clc1ccccc1C(Nc1cnccn1)Nc1cnccn1	> 100 µM (inactive)	4.36 µM (inactive)	> 100 µM (inactive)	> 100 µM (inactive)	> 100 µM (inactive)	23.6 µM (inactive)	98.2 µM (inactive)	35.1 µM (inactive)	> 100 µM (inactive)	> 100 µM (inactive)	> 100 µM (inactive)	0.692 µM (active)	> 100 µM (inactive)	> 100 µM (inactive)	> 100 µM (inactive)	> 100 µM (inactive)	> 100 µM (inactive)	> 100 µM (inactive)	> 100 µM (inactive)	> 100 µM (inactive)
O=C1NC(=O)C(c2c[nH]c3cc(Br)ccc23)=C1c1cnc[nH]1	21.1 µM (inactive)	55.8 µM (inactive)	13.2 µM (inactive)	53.1 µM (inactive)	24 µM (inactive)	23.9 µM (inactive)	25.8 µM (inactive)	30.8 µM (inactive)	> 100 µM (inactive)	60.5 µM (inactive)	16 µM (inactive)	20.4 µM (inactive)	21.9 µM (inactive)	> 100 µM (inactive)	28.4 µM (inactive)	26.2 µM (inactive)	21.7 µM (inactive)	13.1 µM (inactive)	12.3 µM (inactive)	27.9 µM (inactive)
CN(C)CCc1c2c(nc3ccccc13)C(=O)c1cccnc1C2=O	0.173 µM (active)	0.0873 µM (active)	0.582 µM (active)	1.24 µM (inactive)	0.0826 µM (active)	2.57 µM (inactive)	0.0838 µM (active)	0.488 µM (active)	0.119 µM (active)	0.126 µM (active)	0.214 µM (active)	0.0486 µM (active)	0.168 µM (active)	0.652 µM (active)	0.542 µM (active)	1.55 µM (inactive)	0.122 µM (active)	0.479 µM (active)	0.0513 µM (active)	0.385 µM (active)
NS(=O)(=O)c1nn2c(Br)c(-c3ccccc3)nc2s1	4.85 µM (inactive)	3.62 µM (inactive)	3.03 µM (inactive)	6.44 µM (inactive)	5.98 µM (inactive)	1.61 µM (inactive)	2.04 µM (inactive)	2.39 µM (inactive)	3.84 µM (inactive)	3.08 µM (inactive)	5.16 µM (inactive)	3.66 µM (inactive)	1.96 µM (inactive)	9.46 µM (inactive)	10.4 µM (inactive)	2.49 µM (inactive)	3.95 µM (inactive)	14.7 µM (inactive)	4.49 µM (inactive)	4.47 µM (inactive)
COc1cc(/C=C/C=C2\CCC/C(=C\C=C\c3ccc(O)c(OC)c3)C2=O)ccc1O	24.7 µM (inactive)	6.84 µM (inactive)	7.23 µM (inactive)	4.85 µM (inactive)	13.8 µM (inactive)	1.01 µM (active)	10.5 µM (inactive)	5.4 µM (inactive)	12.2 µM (inactive)	14.7 µM (inactive)	12.1 µM (inactive)	7.13 µM (inactive)	17.5 µM (inactive)	31.7 µM (inactive)	6.7 µM (inactive)	6.04 µM (inactive)	5.24 µM (inactive)	5.81 µM (inactive)	9.12 µM (inactive)	39.1 µM (inactive)
COC1C(=O)N(SC)C1c1ccccc1Cl (stereo not given)	> 100 µM (inactive)	21.4 µM (inactive)	80.5 µM (inactive)	> 100 µM (inactive)	> 100 µM (inactive)	9.62 µM (inactive)	11.3 µM (inactive)	19.6 µM (inactive)	68.1 µM (inactive)	> 100 µM (inactive)	> 100 µM (inactive)	16.7 µM (inactive)	19.6 µM (inactive)	> 100 µM (inactive)	18.7 µM (inactive)	20.3 µM (inactive)	19.7 µM (inactive)	> 100 µM (inactive)	19.6 µM (inactive)	35.6 µM (inactive)
CC(C)=CCC[C@@H](C)C1=C(O)C(=O)C(C)=C(Nc2ccccc2I)C1=O	7.55 µM (inactive)	21.9 µM (inactive)	12.9 µM (inactive)	11.8 µM (inactive)	10.1 µM (inactive)	2.22 µM (inactive)	11.8 µM (inactive)	9.1 µM (inactive)	2.28 µM (inactive)	23.4 µM (inactive)	16.3 µM (inactive)	2.19 µM (inactive)	9.23 µM (inactive)	25.4 µM (inactive)	3.41 µM (inactive)	14 µM (inactive)	23.2 µM (inactive)	18.5 µM (inactive)	4.6 µM (inactive)	23.8 µM (inactive)
COc1ccc(/C=C2\CN(C)C/C(=C\c3ccc(OC)c(OC)c3OC)C2=O)c(OC)c1OC	0.0859 µM (active)	0.155 µM (active)	0.485 µM (active)	0.294 µM (active)	0.146 µM (active)	0.0685 µM (active)	0.111 µM (active)	0.0292 µM (active)	0.145 µM (active)	0.333 µM (active)	0.249 µM (active)	0.0191 µM (active)	0.102 µM (active)	0.237 µM (active)	0.311 µM (active)	0.171 µM (active)	0.0507 µM (active)	0.586 µM (active)	0.11 µM (active)	0.282 µM (active)
CC(C)[C@@H]1CC[C@@H](C)C[C@H]1OC(=O)/C=C1\C(C(=O)O[C@@H]2C[C@H](C)CC[C@H]2C(C)C)[C@H]2C=C[C@@H]1O2 (stereo not given in full)	87.7 µM (inactive)	29.9 µM (inactive)	> 100 µM (inactive)	80.2 µM (inactive)	37.9 µM (inactive)	35.8 µM (inactive)	49.9 µM (inactive)	56.1 µM (inactive)	> 100 µM (inactive)	57.9 µM (inactive)	35 µM (inactive)	22.9 µM (inactive)	> 100 µM (inactive)	> 100 µM (inactive)	> 100 µM (inactive)	33.4 µM (inactive)	25.1 µM (inactive)	> 100 µM (inactive)	38.3 µM (inactive)	87.5 µM (inactive)
COc1cc(Nc2ccc3c(c2)CCC3)nc(OC)n1	27.9 µM (inactive)	> 100 µM (inactive)	37.9 µM (inactive)	26.5 µM (inactive)	30.8 µM (inactive)	0.0144 µM (active)	38.2 µM (inactive)	14.7 µM (inactive)	23.1 µM (inactive)	53 µM (inactive)	44.4 µM (inactive)	29.6 µM (inactive)	38.9 µM (inactive)	43.6 µM (inactive)	31.4 µM (inactive)	19.9 µM (inactive)	29.6 µM (inactive)	50 µM (inactive)	46.1 µM (inactive)	38.5 µM (inactive)
COCCCN1C(=O)C2c3[nH]c4ccccc4c3C3CCC(C(C)(C)C)CC3C2C1=O (stereo not given)	20.7 µM (inactive)	30.6 µM (inactive)	29.5 µM (inactive)	32.6 µM (inactive)	18.7 µM (inactive)	24.7 µM (inactive)	19.8 µM (inactive)	22.6 µM (inactive)	> 10 µM (inactive)	58.9 µM (inactive)	27.7 µM (inactive)	23.4 µM (inactive)	27.4 µM (inactive)	33 µM (inactive)	> 100 µM (inactive)	15.3 µM (inactive)	20.6 µM (inactive)	> 100 µM (inactive)	17.4 µM (inactive)	21.7 µM (inactive)
C=CCC(CNC(=O)OCc1ccccc1)OC(=O)OCc1ccccc1 (stereo not given)	48.1 µM (inactive)	> 100 µM (inactive)	> 100 µM (inactive)	51.3 µM (inactive)	> 100 µM (inactive)	25.8 µM (inactive)	51.9 µM (inactive)	26.1 µM (inactive)	> 100 µM (inactive)	> 100 µM (inactive)	73.3 µM (inactive)	34 µM (inactive)	> 100 µM (inactive)	> 100 µM (inactive)	> 100 µM (inactive)	36.3 µM (inactive)	39.1 µM (inactive)	> 100 µM (inactive)	63.2 µM (inactive)	> 100 µM (inactive)
CN1C[C@@H]2CCCN2P1Oc1cccc2cccnc12 (stereo not given in full)	40.2 µM (inactive)	18.7 µM (inactive)	35.3 µM (inactive)	44.5 µM (inactive)	35.4 µM (inactive)	6.76 µM (inactive)	8.69 µM (inactive)	13.2 µM (inactive)	19.8 µM (inactive)	83.4 µM (inactive)	29.4 µM (inactive)	16.1 µM (inactive)	44.9 µM (inactive)	> 100 µM (inactive)	32.9 µM (inactive)	33 µM (inactive)	12 µM (inactive)	> 100 µM (inactive)	23.4 µM (inactive)	42.6 µM (inactive)

From ChEMBL document CHEMBL1201862, “PubChem BioAssay data set” (2004)
